For 7 compounds, ED50, IC50 and Activity results are on record in ChEMBL document CHEMBL1152264, “Diazen-1-ium-1,2-diolated nitric oxide donor ester prodrugs of 5-(4-hydroxymethylphenyl)-1-(4-aminosulfonylphenyl)-3-trifluoromethyl-1H-pyrazole and its methanesulfonyl analog: synthesis, biological evaluation and nitric oxide release studies” (Bioorg Med Chem, 2008).

In one series the test system is Rattus norvegicus. Description: Antiinflammatory activity against po dosed carrageenan-induced rat foot paw edema after 3 hrs. It counts as functional.
Series [1] addresses T1, Prostaglandin G/H synthase 1 (Ovis aries, UniProt P05979).
T1 sequence (P05979 whole entry): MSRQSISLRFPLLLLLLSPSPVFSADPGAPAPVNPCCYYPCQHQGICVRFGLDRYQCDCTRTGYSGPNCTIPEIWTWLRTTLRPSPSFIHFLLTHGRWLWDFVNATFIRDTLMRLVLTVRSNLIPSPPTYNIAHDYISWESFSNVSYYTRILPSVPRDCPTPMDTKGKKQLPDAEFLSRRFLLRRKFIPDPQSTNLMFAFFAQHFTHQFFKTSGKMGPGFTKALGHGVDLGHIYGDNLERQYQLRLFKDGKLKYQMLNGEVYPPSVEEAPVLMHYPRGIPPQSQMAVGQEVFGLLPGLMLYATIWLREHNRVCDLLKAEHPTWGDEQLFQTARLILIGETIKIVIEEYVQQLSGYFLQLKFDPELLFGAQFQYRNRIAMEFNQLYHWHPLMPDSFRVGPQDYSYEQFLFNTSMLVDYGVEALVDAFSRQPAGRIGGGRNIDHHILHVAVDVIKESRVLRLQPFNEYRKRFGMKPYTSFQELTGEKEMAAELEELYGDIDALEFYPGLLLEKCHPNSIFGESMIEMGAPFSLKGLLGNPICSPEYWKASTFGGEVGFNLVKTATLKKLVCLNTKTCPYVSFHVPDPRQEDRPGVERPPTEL
Description: Inhibition of ovine COX1 by enzyme immuno assay

Series [2] in a line: Effect on nitric oxide release in phosphate buffer at pH 7.4 after 1.5 hrs. It counts as physicochemical. Conditions: pH 7.4, 1.5 h.
Series [3] is described as follows: Effect on nitric oxide release in phosphate buffer at pH 7.4 after 1.5 hrs in presence of rat serum. Type of series: ADME. Conditions: pH 7.4, 1.5 h.

The term ED50 denotes the dose at which the effect has come halfway, by size or by number of responders. A low value points to greater potency. The IC50 is the concentration that inhibits the measured activity by half.

Where only a bound is given, the exact number is not on record here.

Take `CS(=O)(=O)c1ccc(-n2nc(C(F)(F)F)cc2-c2ccc(CO)cc2)cc1`: it took a dose of 112 µmol/kg to reach the 50% effect level in the series on Rattus norvegicus (ED50). This compound came in with an IC50 in series [1] of 8.6 µM.
In the series with Rattus norvegicus, `CC(=O)OCO/N=[N+](\[O-])N1CCC[C@H]1C(=O)OCc1ccc(-c2cc(C(F)(F)F)nn2-c2ccc(S(N)(=O)=O)cc2)cc1` yielded an ED50 of 94.3 µmol/kg. In series [1], the IC50 is above 100 µM. The values for the Activity in series [2] and in series [3] were 8.2% and 76%, respectively.
Consider `CC(=O)OCO/N=[N+](\[O-])N1CCC[C@H]1C(=O)OCc1ccc(-c2cc(C(F)(F)F)nn2-c2ccc(S(C)(=O)=O)cc2)cc1`, for which, in the series with Rattus norvegicus, the ED50 stood at 76.7 µmol/kg. Moreover, the Activity in series [2] was 6.1%; in series [3], 77%.
On to `CC(=O)Oc1ccccc1C(=O)O` [ASPIRIN], for which the ED50 in the series on Rattus norvegicus came to 710 µmol/kg.
`Cc1ccc(-c2cc(C(F)(F)F)nn2-c2ccc(S(N)(=O)=O)cc2)cc1` [CELECOXIB] showed an ED50 with Rattus norvegicus of 30.9 µmol/kg.
In the series with Rattus norvegicus, `CC(C)Cc1ccc(C(C)C(=O)O)cc1` (stereo not drawn) [IBUPROFEN] registered an ED50 of 327 µmol/kg.
`NS(=O)(=O)c1ccc(-n2nc(C(F)(F)F)cc2-c2ccc(CO)cc2)cc1` [PRIMARY ALCOHOL METABOLITE OF CELECOXIB] returned an ED50 in the series with Rattus norvegicus of 77.1 µmol/kg.
